{"source": "patent US20050042291A1", "about": "“Diffusion layer modulated solids” (priority 2003, published 2005)", "key": {"[1]": {"test": "Intrinsic dissolution rate of co-compressed pellets, fiber optic automated rotating disk dissolution method", "type": "physicochemical", "settings": "for Percent dissolved in 60 minutes at pH 6: pH 6 (0.01 M phosphate) with 0.6% SLS", "experimental": "The 0.48 cm ( 3/16 inch) HSS rod was inserted into the die to a distance of 1.9 cm (¾ inch), leaving 0.64 (¼ inch) for placement of 20±1 mg of the drug or drug mixture into the 0.48 cm ( 3/16 inch) diameter hole.\nAfter adding the drug, the punch (or HSS rod) was inserted into the die and the entire die assembly was placed into a 3-bolt holder that was used to hold a 0.64 cm (¼ inch) SS base plate firmly against the powder bed during compression in the die. Compression of the powder was achieved on a Carver press using a stepwise increase in the force up to 4450 newtons (1000 pounds force) (i.e., 255 MPa (37000 psi)) and then a progressive decrease in pressure as described in the following. A force of 1110 newtons (250 pounds force) was applied for approximately 10 seconds and the pressure was removed. This was repeated at 2220 newtons (500 pounds force), 3330 newtons (750 pounds force), and 4450 newtons (1,000 pounds force). The 4450 newtons (1000 pounds force) (i.e., 255 MPa (37000 psi)) was applied again and maintained for 1 minute. The pressure was decreased stepwise by simply lowering the pressure and then holding it at 3330 newtons (750 pounds force) for 10 seconds and repeating this at 2220 newtons (500 pounds force), 1110 newtons (250 pounds force) and, finally, the pressure was removed.\nThe die and holder was removed from the Carver press and the punch (or HSS rod) was twisted to loosen the rod and to allow the pellet to relax or expand from the backside. After a three minute (minimum) relaxation period, the set-screw on the HSS rod was firmly secured to the die.\nThe entire punch and die assembly containing the drug pellet with one face of the drug pellet exposed was removed as a unit from the holder and the intrinsic dissolution rate was determined as described below.\nThe HSS rod in the die containing the drug compact with one face of the drug pellet exposed was attached to an electric motor with a fixed speed of 300 revolutions per minute (rpm). The die was rotated (300 rpm) while the die (containing the drug pellet) was lowered at t=0 into the center of the dissolution vessel consisting of a jacketed 800 mL beaker (Pyrex, No.1000) containing 500 mL of the desired de-gassed (house vacuum, 3 minutes) dissolution medium maintained at 37±0.5° C. The dissolution medium consisted of either dilute HCl (0.01, 0.001 or 0.0001 N HCl) or pH 6, 0.01 M phosphate containing 0.6% SLS (sodium lauryl sulfate). The die was positioned such that the drug compact was approximately 6.4 cm (2.5 inches) from the bottom of the 500 mL dissolution beaker and approximately the same distance from the liquid surface. Continuous monitoring by ultraviolet (UV) spectroscopy was conducted by the fiber optic UV automated dissolution method or samples were taken automatically by the HPLC sampling method as described below.\nThe Fiber Optic Dissolution System. The fiber optic UV automated dissolution system employed an Ocean Optics PC Model 1000 fiber optic spectrophotometer connected to a 120 mHz Pentium computer. The dissolution process was monitored continuously at 290 nm with the fiber optic probe with 5-10 data points taken per minute. The data was processed automatically with a Visual Basic application program that allowed the data to be collected automatically from the spectrophotometer.\nThe delavirdine mesylate intrinsic dissolution rate profile was plotted in Excel and the intrinsic dissolution rate was calculated automatically by the program. The dissolution period was usually 15 minutes, but could be as short as approximately 1 minute, or as long as a few hours.\nCalculation of the Intrinsic Dissolution Rate."}, "[2]": {"test": "Rat oral bioavailability of tipranavir disodium spray dried powders", "type": "in vivo", "settings": "plasma, 20 mg/kg", "experimental": "HPLC analysis of tipranavir in the rat plasma samples following administration of the various tipranavir disodium spray dried powders was conducted using an RP 8 column (Zorbax, DuPont) with a mobile phase consisting of methanolaqueous 0.05 M formate buffer, pH 4 ([…]).\nThe rat oral bioavailability of tipranavir disodium spray dried powders as well as the parent tipranavir disodium bulk drug were administered by intubation of the powders using a group of 7-8 rats (250-290 g) obtained from Taconic (Germantown, N.Y.). Intubation was achieved using a 10 cm (4 inch) section of Teflon tubing, […], containing a piece of cheese (American, fat free) inserted into the bottom of the tubing. The desired tipranavir disodium powdered bulk drug was placed into the tube and the tube was inserted into the stomach of the rat. The drug was displaced from the Teflon tubing and into the stomach by passing 2 ml of water through the tubing. The dose was 20 mg/kg in all cases.\nThe blood samples were processed with precipitation of the proteins with acetonitrile followed by centrifugation. The samples were assayed as described above."}, "Solubility": {"test": "Solubility", "type": "physicochemical", "settings": "water, pH 6, water"}}, "note": "Counter-ions that a name gives are not always drawn. Like-named read-outs stand apart in the source and are kept apart here."}
{"compound": "CC(C)Nc1cccnc1N1CCN(C(=O)c2cc3cc(NS(C)(=O)=O)ccc3[nH]2)CC1", "note": "[Delavirdine Mesylate, delavirdine mesylate]", "values": [{"measurement": "IDR, pH 2 0.01 N HCl", "setting": "[1]; pH 2 0.01 N HCl, 37° C., 300 rpm, observed", "value": "220 micrograms · cm^−2 · sec^−1"}, {"measurement": "Percent of pellet dissolved at pH 2", "setting": "[1]; pH 2 (0.01 N) HCl, 37° C., dissolution then stops", "value": "approximately 60%"}, {"measurement": "Percent dissolved in 60 minutes at pH 6", "setting": "[1]; 20 mg pellet, listed as Delavirdine mesylate alone", "value": "approximately 2%"}, {"measurement": "Percent dissolved in 60 minutes at pH 6", "setting": "[1]; 20 mg pellet, listed as pure delavirdine mesylate", "value": "less than 1%"}, {"measurement": "IDR, pH 6 with 0.5% SLS", "setting": "[1]; pH 6 with 0.5% SLS, 37° C., 300 rpm, observed", "value": "2 micrograms · cm^−2 · sec^−1"}, {"measurement": "Percent dissolved in less than 10 minutes at pH 6", "setting": "[1]; pH 6 with 0.6% SLS, less than 10 minutes, 20 mg pellet", "value": "less than 1%"}]}
{"compound": "CCC[C@@]1(CCc2ccccc2)CC(O)=C([C@H](CC)c2cccc(NS(=O)(=O)c3ccc(C(F)(F)F)cn3)c2)C(=O)O1", "note": "[Tipranavir Disodium bulk drug, tipranavir disodium]", "values": [{"measurement": "AUC(0-inf)", "setting": "[2]; fasted, read-out: AUCInf, fasted", "value": 23400, "unit": "ng·h/mL"}, {"measurement": "AUC(0-inf)", "setting": "[2]; fed, read-out: AUCInf, fed", "value": 45800, "unit": "ng·h/mL"}]}
{"compound": "CCC[C@@]1(CCc2ccccc2)CC(O)=C([C@H](CC)c2cccc(NS(=O)(=O)c3ccc(C(F)(F)F)cn3)c2)C(=O)O1", "note": "[tipranavir]", "values": [{"measurement": "solubility", "setting": "Solubility", "value": "5 to 10", "unit": "µg/mL"}]}
